Results published in paper PMC4334727 (Circulation, 2014).

Assays:
[1] = biological target: DUSP3 (Homo sapiens, UniProt P51452); assay: DUSP3 phosphatase inhibition assay; type: biochemical
[2] = test system: PTP-SL; assay: PTP selectivity profiling; type: biochemical
[3] = biological target: LAR (Homo sapiens, UniProt P10586); assay: PTP selectivity profiling; type: biochemical
[4] = biological target: T1, TCPTP (Homo sapiens, UniProt P17706); assay: PTP selectivity profiling; type: biochemical
T1 sequence (P17706 1-415): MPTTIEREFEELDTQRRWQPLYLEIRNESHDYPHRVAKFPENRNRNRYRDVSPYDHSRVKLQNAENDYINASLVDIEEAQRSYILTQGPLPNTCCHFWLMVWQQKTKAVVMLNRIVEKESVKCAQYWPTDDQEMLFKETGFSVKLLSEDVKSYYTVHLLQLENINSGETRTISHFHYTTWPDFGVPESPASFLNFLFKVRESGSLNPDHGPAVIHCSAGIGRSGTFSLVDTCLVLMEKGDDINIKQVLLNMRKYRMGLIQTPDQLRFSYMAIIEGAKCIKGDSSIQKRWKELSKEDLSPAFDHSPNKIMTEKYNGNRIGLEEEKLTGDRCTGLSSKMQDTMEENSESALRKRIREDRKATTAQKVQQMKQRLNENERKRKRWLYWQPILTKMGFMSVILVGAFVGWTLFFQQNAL

[5] = test system: DUSP3-deficient platelets; assay: Platelet aggregation in washed platelets from Dusp3-KO mice; conditions: Dusp3-KO mouse washed platelets, 3.7 μM, pre-incubated 30 min
[6] = biological target: T2, STEP (Homo sapiens, UniProt P54829); assay: PTP selectivity profiling; type: biochemical
T2 sequence (P54829 1-565): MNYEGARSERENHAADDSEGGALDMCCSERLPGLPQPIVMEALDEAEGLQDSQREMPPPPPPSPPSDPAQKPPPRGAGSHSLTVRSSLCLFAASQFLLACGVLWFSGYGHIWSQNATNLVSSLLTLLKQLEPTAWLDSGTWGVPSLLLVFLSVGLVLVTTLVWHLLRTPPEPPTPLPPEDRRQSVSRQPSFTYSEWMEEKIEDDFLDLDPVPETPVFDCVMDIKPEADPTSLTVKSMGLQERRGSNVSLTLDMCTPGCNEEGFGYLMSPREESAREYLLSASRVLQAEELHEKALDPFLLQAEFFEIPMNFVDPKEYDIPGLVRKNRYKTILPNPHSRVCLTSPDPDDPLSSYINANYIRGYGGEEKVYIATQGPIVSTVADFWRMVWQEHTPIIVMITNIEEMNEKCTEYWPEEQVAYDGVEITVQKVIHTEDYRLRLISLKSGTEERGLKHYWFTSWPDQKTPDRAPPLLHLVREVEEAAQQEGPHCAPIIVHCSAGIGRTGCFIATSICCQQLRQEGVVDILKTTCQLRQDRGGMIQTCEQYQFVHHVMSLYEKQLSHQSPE

[7] = biological target: T3, DUSP22 (Homo sapiens, UniProt Q9NRW4); assay: PTP selectivity profiling; type: biochemical
T3 sequence (Q9NRW4 1-184): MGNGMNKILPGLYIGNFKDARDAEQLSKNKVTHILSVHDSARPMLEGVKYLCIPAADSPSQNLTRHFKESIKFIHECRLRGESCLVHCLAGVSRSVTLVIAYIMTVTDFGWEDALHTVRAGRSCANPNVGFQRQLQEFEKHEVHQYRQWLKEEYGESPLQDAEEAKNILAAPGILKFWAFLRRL

[8] = biological target: T4, CD45 (Homo sapiens, UniProt P08575); assay: PTP selectivity profiling; type: biochemical
T4 sequence (P08575 26-1306): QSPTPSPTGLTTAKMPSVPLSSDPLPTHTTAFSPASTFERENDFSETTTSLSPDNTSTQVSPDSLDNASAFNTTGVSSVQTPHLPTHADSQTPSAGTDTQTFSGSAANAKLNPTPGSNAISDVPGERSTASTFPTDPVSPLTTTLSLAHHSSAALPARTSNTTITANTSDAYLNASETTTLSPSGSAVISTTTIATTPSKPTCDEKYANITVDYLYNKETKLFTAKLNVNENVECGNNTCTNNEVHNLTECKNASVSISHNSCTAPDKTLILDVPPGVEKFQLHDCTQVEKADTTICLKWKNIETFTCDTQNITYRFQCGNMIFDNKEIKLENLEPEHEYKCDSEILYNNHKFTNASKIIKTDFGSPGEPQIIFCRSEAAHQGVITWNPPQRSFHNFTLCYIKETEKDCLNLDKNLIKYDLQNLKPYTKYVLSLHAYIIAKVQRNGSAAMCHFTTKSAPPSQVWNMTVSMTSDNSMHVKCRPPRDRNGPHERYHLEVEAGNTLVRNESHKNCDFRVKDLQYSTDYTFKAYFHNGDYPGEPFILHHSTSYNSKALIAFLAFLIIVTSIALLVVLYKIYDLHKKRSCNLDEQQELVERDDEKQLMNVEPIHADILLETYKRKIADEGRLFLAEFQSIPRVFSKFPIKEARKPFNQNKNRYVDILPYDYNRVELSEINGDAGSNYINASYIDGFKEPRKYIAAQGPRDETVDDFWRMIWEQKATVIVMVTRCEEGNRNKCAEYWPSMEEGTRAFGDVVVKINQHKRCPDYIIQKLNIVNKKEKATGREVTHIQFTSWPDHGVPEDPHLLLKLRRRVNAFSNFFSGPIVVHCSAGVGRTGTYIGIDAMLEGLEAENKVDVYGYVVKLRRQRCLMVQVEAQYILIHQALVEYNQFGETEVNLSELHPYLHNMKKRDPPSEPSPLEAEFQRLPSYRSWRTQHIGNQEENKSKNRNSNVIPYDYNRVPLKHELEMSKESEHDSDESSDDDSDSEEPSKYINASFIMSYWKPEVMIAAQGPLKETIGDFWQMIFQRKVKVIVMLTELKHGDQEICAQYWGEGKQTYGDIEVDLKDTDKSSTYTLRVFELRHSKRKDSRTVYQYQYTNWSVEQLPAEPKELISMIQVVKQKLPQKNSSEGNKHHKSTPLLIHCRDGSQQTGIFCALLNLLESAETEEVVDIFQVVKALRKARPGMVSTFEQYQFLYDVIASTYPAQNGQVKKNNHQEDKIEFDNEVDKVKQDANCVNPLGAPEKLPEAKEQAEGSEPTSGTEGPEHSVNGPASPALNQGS

[9] = biological target: T5, PTP1B (Homo sapiens, UniProt P18031); assay: PTP selectivity profiling; type: biochemical
T5 sequence (P18031 1-435): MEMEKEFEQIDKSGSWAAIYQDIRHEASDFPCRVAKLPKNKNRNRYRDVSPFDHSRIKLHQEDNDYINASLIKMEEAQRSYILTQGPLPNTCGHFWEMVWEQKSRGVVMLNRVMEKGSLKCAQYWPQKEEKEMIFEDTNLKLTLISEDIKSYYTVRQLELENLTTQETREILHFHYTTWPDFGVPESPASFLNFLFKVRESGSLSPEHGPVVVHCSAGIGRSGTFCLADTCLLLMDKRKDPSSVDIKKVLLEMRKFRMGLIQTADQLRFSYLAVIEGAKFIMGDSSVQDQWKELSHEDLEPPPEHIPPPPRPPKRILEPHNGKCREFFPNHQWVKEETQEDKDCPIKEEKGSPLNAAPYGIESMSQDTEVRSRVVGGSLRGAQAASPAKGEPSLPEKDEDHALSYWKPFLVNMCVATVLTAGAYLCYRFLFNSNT

[10] = test system: human platelets; type: cell-based
[11] = biological target: T6, DUSP6 (Homo sapiens, UniProt Q16828); assay: PTP selectivity profiling; type: biochemical
T6 sequence (Q16828 1-381): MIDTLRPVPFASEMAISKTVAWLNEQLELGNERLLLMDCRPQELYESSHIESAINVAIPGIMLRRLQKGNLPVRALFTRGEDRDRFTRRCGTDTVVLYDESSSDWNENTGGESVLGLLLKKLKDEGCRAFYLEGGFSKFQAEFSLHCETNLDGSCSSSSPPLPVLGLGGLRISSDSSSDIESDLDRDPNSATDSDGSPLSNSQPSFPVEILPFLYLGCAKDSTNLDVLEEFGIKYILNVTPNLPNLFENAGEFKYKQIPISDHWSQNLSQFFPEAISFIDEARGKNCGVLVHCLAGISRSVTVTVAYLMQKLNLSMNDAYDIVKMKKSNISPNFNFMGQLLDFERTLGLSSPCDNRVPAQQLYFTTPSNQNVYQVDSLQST

[12] = biological target: T7, HePTP (Homo sapiens, UniProt P35236); assay: PTP selectivity profiling; type: biochemical
T7 sequence (P35236 1-360): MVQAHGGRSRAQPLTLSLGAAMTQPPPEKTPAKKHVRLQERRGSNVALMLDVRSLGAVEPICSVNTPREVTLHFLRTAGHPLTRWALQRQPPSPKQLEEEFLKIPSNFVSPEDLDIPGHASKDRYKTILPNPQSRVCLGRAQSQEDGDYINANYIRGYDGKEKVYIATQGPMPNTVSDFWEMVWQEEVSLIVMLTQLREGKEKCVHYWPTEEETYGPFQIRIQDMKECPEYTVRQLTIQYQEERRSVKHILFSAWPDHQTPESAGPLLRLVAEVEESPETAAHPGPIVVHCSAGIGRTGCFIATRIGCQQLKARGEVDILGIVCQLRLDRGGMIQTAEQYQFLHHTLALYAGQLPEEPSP

[13] = biological target: T8, LYP (Homo sapiens, UniProt Q9Y2R2); assay: PTP selectivity profiling; type: biochemical
T8 sequence (Q9Y2R2 1-807): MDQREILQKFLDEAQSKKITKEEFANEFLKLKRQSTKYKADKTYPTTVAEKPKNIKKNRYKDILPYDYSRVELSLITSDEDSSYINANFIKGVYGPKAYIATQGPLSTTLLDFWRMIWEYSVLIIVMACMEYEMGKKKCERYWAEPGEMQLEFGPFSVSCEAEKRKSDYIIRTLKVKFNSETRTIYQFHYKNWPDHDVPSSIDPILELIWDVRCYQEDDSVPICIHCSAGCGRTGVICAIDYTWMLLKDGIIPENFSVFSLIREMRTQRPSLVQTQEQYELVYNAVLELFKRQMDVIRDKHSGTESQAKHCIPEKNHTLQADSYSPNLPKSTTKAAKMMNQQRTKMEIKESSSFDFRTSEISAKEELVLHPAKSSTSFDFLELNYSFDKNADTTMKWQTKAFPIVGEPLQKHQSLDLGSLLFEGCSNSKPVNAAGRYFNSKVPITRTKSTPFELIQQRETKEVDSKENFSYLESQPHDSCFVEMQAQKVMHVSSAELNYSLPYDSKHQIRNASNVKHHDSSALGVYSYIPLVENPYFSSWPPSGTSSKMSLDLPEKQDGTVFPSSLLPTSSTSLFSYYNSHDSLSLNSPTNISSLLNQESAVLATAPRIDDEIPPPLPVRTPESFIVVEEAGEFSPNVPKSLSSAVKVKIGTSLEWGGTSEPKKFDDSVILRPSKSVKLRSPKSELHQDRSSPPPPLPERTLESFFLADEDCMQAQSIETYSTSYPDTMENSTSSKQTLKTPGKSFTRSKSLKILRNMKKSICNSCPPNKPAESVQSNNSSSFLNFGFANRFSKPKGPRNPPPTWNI

[14] = DUSP3, HTS hits, text (Supplemental Table S2)

Chain of DUSP3 (P51452 whole entry): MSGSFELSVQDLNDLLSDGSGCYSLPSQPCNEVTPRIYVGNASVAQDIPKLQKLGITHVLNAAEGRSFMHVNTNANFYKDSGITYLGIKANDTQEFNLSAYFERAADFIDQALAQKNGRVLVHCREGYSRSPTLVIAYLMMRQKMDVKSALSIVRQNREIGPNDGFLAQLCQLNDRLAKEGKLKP
Chain of LAR (P10586 30-1907, species assumed): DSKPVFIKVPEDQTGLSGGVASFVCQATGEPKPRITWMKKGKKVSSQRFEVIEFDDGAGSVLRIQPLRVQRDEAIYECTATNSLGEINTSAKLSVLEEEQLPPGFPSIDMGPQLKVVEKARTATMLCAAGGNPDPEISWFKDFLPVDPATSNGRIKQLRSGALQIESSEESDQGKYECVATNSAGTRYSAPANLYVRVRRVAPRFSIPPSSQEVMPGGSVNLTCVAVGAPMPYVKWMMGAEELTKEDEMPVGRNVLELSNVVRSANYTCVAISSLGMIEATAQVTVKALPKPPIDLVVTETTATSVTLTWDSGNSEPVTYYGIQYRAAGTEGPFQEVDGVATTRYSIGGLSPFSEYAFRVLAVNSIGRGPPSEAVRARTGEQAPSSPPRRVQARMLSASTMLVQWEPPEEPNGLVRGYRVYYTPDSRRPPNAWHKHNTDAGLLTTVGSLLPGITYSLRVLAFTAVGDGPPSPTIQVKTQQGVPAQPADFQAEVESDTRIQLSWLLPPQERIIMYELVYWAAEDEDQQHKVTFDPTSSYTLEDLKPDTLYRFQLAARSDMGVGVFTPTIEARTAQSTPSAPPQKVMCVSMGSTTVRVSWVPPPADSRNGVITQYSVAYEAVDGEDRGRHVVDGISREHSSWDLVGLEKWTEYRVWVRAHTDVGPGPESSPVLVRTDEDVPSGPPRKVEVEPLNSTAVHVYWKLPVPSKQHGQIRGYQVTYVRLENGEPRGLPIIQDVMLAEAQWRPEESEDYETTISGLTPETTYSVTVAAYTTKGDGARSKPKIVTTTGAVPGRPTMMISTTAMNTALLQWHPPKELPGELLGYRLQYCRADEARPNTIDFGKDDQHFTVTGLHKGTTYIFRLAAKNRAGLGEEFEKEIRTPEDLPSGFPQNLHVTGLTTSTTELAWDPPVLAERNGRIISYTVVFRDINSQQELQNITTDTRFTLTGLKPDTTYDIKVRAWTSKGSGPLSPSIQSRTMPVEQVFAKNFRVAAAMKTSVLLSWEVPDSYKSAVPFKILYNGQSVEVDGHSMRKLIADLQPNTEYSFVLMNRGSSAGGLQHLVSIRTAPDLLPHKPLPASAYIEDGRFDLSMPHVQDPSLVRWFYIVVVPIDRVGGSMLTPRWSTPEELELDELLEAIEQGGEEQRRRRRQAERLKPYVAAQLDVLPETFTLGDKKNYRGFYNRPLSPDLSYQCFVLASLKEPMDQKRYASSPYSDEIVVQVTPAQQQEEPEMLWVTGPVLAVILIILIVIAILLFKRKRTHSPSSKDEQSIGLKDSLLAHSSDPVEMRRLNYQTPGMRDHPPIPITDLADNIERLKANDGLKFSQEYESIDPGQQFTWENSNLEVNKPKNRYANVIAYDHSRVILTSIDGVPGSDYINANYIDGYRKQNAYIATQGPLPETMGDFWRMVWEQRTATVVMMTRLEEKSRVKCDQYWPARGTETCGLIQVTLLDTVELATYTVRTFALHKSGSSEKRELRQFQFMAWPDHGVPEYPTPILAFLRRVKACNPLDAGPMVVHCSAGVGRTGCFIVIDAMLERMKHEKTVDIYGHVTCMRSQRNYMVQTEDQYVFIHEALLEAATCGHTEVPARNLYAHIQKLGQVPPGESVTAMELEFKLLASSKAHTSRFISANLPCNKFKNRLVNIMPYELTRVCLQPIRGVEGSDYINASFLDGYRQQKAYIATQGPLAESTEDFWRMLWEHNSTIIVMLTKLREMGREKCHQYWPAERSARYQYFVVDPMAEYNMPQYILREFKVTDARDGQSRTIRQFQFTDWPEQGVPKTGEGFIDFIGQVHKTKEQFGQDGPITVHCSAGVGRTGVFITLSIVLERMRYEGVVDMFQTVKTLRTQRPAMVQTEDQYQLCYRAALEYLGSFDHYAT

| IC50 [1, 14] | Structure (SMILES) | IC50 [2] | IC50 [3] | IC50 [4] | Effect on aggregation of DUSP3-deficient platelets [5] | IC50 [6] | IC50 ([1]; DUSP3) | selectivity for DUSP3 over DUSP22 ([7]; DUSP3 over DUSP22) | IC50 ([7]; DUSP22) | IC50 [8] | IC50 [9] | Tyrosine phosphorylation of immunoprecipitated Syk and PLCγ2 ([10]; human platelets, CRP- or rhodocytin-activated) | Global tyrosine phosphorylation (pY) of ~70-kDa band ([10]; total lysates of human platelets after stimulation with CRP or rhodocytin) | IC50 [11] | IC50 [12] | IC50 [13] |
| --- | --- | --- | --- | --- | --- | --- | --- | --- | --- | --- | --- | --- | --- | --- | --- | --- |
| 2.68 µM | COc1ccc(-c2nnc(Nc3nc4c(OC)cccc4s3)o2)cc1 [MLS-0049585] |  |  |  |  |  |  |  |  |  |  |  |  |  |  |  |
| 0.37 µM | COc1cc(C(=S)N2CCCCC2)ccc1O [MLS-0103602] |  |  |  |  |  |  |  |  |  |  |  |  |  |  |  |
|  | COc1ccc(-c2nnc(Nc3nc4c(F)cccc4s3)o2)cc1 [MLS-0437605] | 13 µM | > 100 µM | 55 µM | only minimally affected aggregation | > 100 µM | 3.7 µM | 7 fold | 26 µM | > 100 µM | > 100 µM | reduced | caused a decrease in pY | > 100 µM | 38 µM | 49 µM |
